Experimental data as given in the supplement of paper PMC10307832.

What was measured:
Assay in all cases: relative viability (nuclei count vs DMSO), 5 days (fraction); higher = more cells survive
A-427 = test system: A-427
Method in brief: (§1)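 Values are medians from duplicate plates. Each reflects relative viability, defined as the nuclei count of treated wells over that of vehicle wells. Lung cancer cell lines in 1536-well plates were pin-tool dosed one day after seeding with one drug alone or with a fixed anchor-drug dose plus five library-drug doses (not always all listed) in √10 steps, then fixed, stained and imaged at 4× after 5 days.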

EPLC-272H = test system: EPLC-272H
Method in brief: as §1

HCC-15 = test system: HCC-15
Method in brief: as §1

LC-2-ad = test system: LC-2-ad
Method in brief: as §1

LK-2 = test system: LK-2
Method in brief: as §1

NCI-H1734 = test system: NCI-H1734
Method in brief: as §1

NCI-H1793 = test system: NCI-H1793
Method in brief: as §1

NCI-H1915 = test system: NCI-H1915
Method in brief: as §1

NCI-H1944 = test system: NCI-H1944
Method in brief: as §1

NCI-H2009 = test system: NCI-H2009
Method in brief: as §1

NCI-H2023 = test system: NCI-H2023
Method in brief: as §1

NCI-H2342 = test system: NCI-H2342
Method in brief: as §1

NCI-H2347 = test system: NCI-H2347
Method in brief: as §1

NCI-H322M = test system: NCI-H322M
Method in brief: as §1

NCI-H358 = test system: NCI-H358
Method in brief: as §1

NCI-H441 = test system: NCI-H441
Method in brief: as §1

NCI-H522 = test system: NCI-H522
Method in brief: as §1

NCI-H647 = test system: NCI-H647
Method in brief: as §1

NCI-H838 = test system: NCI-H838
Method in brief: as §1

RERF-LC-KJ = test system: RERF-LC-KJ
Method in brief: as §1

SW 1573 = test system: SW 1573
Method in brief: as §1

UMC-11 = test system: UMC-11
Method in brief: as §1

For `CN1CCN(CCOc2cc(OC3CCOCC3)c3c(Nc4c(Cl)ccc5c4OCO5)ncnc3c2)CC1` [Saracatinib] + CC(=O)Nc1cccc(-n2c(=O)n(C3CC3)c(=O)c3c(Nc4ccc(I)cc4F)n(C)c(=O)c(C)c32)c1 [Trametinib] (partner 0.02 µM), the relative viability (A-427; first compound 0.02 µM) was 0.764, the relative viability (A-427; first compound 0.2 µM) was 0.738 and the relative viability (A-427; first compound 0.6325 µM) was 0.911. It also gave a relative viability (A-427; first compound 2 µM) of 0.672, a relative viability (EPLC-272H; first compound 0.02 µM) of 0.289 and a relative viability (EPLC-272H; first compound 0.2 µM) of 0.368. The relative viability (EPLC-272H; first compound 0.6325 µM) was 0.283, the relative viability (EPLC-272H; first compound 2 µM) was 0.287 and the relative viability (HCC-15; first compound 0.02 µM) was 0.44. For the same compound, the relative viability (HCC-15; first compound 0.2 µM) was 0.371, the relative viability (HCC-15; first compound 0.6325 µM) was 0.455 and the relative viability (HCC-15; first compound 2 µM) was 0.388. For the same compound, the relative viability (LC-2-ad; first compound 0.02 µM) was 0.9, the relative viability (LC-2-ad; first compound 0.2 µM) was 0.858 and the relative viability (LC-2-ad; first compound 0.6325 µM) was 0.993. The relative viability (LC-2-ad; first compound 2 µM) was 0.866, the relative viability (LK-2; first compound 0.02 µM) was 0.725 and the relative viability (LK-2; first compound 0.2 µM) was 0.736. It also gave a relative viability (LK-2; first compound 0.6325 µM) of 0.722, a relative viability (LK-2; first compound 2 µM) of 0.614 and a relative viability (NCI-H1734; first compound 0.02 µM) of 0.7. The relative viability (NCI-H1734; first compound 0.6325 µM) was 0.645, the relative viability (NCI-H1734; first compound 2 µM) was 0.611 and the relative viability (NCI-H1793; first compound 0.02 µM) was 0.439. The relative viability (NCI-H1793; first compound 0.2 µM) was 0.395, the relative viability (NCI-H1793; first compound 0.6325 µM) was 0.513 and the relative viability (NCI-H1793; first compound 2 µM) was 0.475. The relative viability (NCI-H1915; first compound 0.02 µM) was 0.305, the relative viability (NCI-H1915; first compound 0.2 µM) was 0.292 and the relative viability (NCI-H1915; first compound 0.6325 µM) was 0.251. It also gave a relative viability (NCI-H1915; first compound 2 µM) of 0.265, a relative viability (NCI-H1944; first compound 0.02 µM) of 0.421 and a relative viability (NCI-H1944; first compound 0.2 µM) of 0.391. The relative viability (NCI-H1944; first compound 0.6325 µM) was 0.417, the relative viability (NCI-H1944; first compound 2 µM) was 0.308 and the relative viability (NCI-H2009; first compound 0.02 µM) was 0.274. For the same compound, the relative viability (NCI-H2009; first compound 0.2 µM) was 0.207, the relative viability (NCI-H2009; first compound 0.6325 µM) was 0.209 and the relative viability (NCI-H2009; first compound 2 µM) was 0.175. For the same compound, the relative viability (NCI-H2023; first compound 0.02 µM) was 0.52, the relative viability (NCI-H2023; first compound 0.2 µM) was 0.269 and the relative viability (NCI-H2023; first compound 0.6325 µM) was 0.487. For the same compound, the relative viability (NCI-H2023; first compound 2 µM) was 0.348, the relative viability (NCI-H2342; first compound 0.02 µM) was 0.763 and the relative viability (NCI-H2342; first compound 0.2 µM) was 0.789. The relative viability (NCI-H2342; first compound 0.6325 µM) was 0.944, the relative viability (NCI-H2342; first compound 2 µM) was 0.817 and the relative viability (NCI-H2347; first compound 0.02 µM) was 0.265. It also gave a relative viability (NCI-H2347; first compound 0.2 µM) of 0.265, a relative viability (NCI-H2347; first compound 0.6325 µM) of 0.379 and a relative viability (NCI-H2347; first compound 2 µM) of 0.277. For the same compound, the relative viability (NCI-H322M; first compound 0.02 µM) was 0.529, the relative viability (NCI-H322M; first compound 0.2 µM) was 0.449 and the relative viability (NCI-H322M; first compound 0.6325 µM) was 0.582. The relative viability (NCI-H322M; first compound 2 µM) was 0.357, the relative viability (NCI-H358; first compound 0.02 µM) was 0.156 and the relative viability (NCI-H358; first compound 0.2 µM) was 0.131. For the same compound, the relative viability (NCI-H358; first compound 0.6325 µM) was 0.105, the relative viability (NCI-H358; first compound 2 µM) was 0.0979 and the relative viability (NCI-H441; first compound 0.02 µM) was 0.514. For the same compound, the relative viability (NCI-H441; first compound 0.2 µM) was 0.487, the relative viability (NCI-H441; first compound 0.6325 µM) was 0.507 and the relative viability (NCI-H441; first compound 2 µM) was 0.339. It also gave a relative viability (NCI-H522; first compound 0.02 µM) of 0.708, a relative viability (NCI-H522; first compound 0.2 µM) of 0.745 and a relative viability (NCI-H522; first compound 0.6325 µM) of 0.788. It also gave a relative viability (NCI-H522; first compound 2 µM) of 0.536, a relative viability (NCI-H647; first compound 0.02 µM) of 0.449 and a relative viability (NCI-H647; first compound 0.2 µM) of 0.381. It also gave a relative viability (NCI-H647; first compound 0.6325 µM) of 0.39, a relative viability (NCI-H647; first compound 2 µM) of 0.255 and a relative viability (NCI-H838; first compound 0.02 µM) of 0.54. It also gave a relative viability (NCI-H838; first compound 0.2 µM) of 0.497, a relative viability (NCI-H838; first compound 0.6325 µM) of 0.47 and a relative viability (NCI-H838; first compound 2 µM) of 0.425. For the same compound, the relative viability (RERF-LC-KJ; first compound 0.02 µM) was 0.907, the relative viability (RERF-LC-KJ; first compound 0.2 µM) was 0.869 and the relative viability (RERF-LC-KJ; first compound 0.6325 µM) was 0.916. For the same compound, the relative viability (RERF-LC-KJ; first compound 2 µM) was 0.687, the relative viability (SW 1573; first compound 0.02 µM) was 0.507 and the relative viability (SW 1573; first compound 0.2 µM) was 0.598. The relative viability (SW 1573; first compound 0.6325 µM) was 0.457, the relative viability (SW 1573; first compound 2 µM) was 0.364 and the relative viability (UMC-11; first compound 0.02 µM) was 0.763. For the same compound, the relative viability (UMC-11; first compound 0.2 µM) was 0.586, the relative viability (UMC-11; first compound 0.6325 µM) was 0.911 and the relative viability (UMC-11; first compound 2 µM) was 0.641.
